Reference: patent WO2020169698A1, “Sensitization of cancer cells to tnf by bet inhibition” (dated 2020)

Key:
[1] = system: HCT116-NLV cells; test: Epigenetic small molecule screen, coculture with CMV-specific T cells, 48 h; format: cell-based, human; conditions: Ag+ coculture, 2.5uM or 5uM
[2] = system: HCT116-EBV cells; test: Epigenetic small molecule screen, negative control coculture with CMV-specific T cells, 48 h; conditions: Ag- (EBV peptide) coculture, 2.5uM or 5uM
[3] = system: MC38-huCEA expressing sc tumors; test: In vivo antitumor efficacy against MC38-huCEA sc tumors; parameters: species or system mice; conditions: single agent; JQ1 50mg/kg ip once daily (14x) or CEA-TCB 2.5mg/kg iv twice weekly (4x); last day of study
[4] = system: MKN45 cells; test: CellTiterGlo viability with BET inhibitor + TNF, 72 h; format: cell-based; conditions: in combination with 15ng/ml TNF vs BET inhibitor single agent, significance for the highest concentration of compound
[5] = system: MC38 cells; test: Viability of p-gp 1 expressing MC38 cells with BET inhibitor + TNF +/- Zosuquidar, 72 h; format: cell-based, murine; conditions: for change in sensitivity by p-gp 1 block with Zosuquidar: 0.5mM (so in the source) Zosuquidar, TNF 15ng/mL, 72 hours, some concentrations tested
[6] = system: HCT116 cells; test: CellTiterGlo viability with BET inhibitor + TNF, 72 h; format: cell-based; conditions: in combination with 15ng/ml TNF vs BET inhibitor single agent, significance for the highest concentration of compound
[7] = system: MC38 cells; test: Synergy of RG6146 and recombinant TNF (PI positivity, ZIP model); format: cell-based, murine; conditions: RG6146 + recombinant TNF, 18 hours
[8] = system: MKN45 cells; test: Cleaved PARP Western blot with CEA-TCB conditioned media + RG6146; format: cell-based; conditions: RG6146 (1 and 2.5 mM as printed) + CEA-TCB conditioned media, 24h; not seen in absence of CEA-TCB
[9] = system: MC38 cells; test: Cell death of MC38 cells overexpressing Bcl-2 or cFLIP (PI positivity), 18 h; format: cell-based, murine; parameters: dose or concentration left out as unconfirmed; conditions: cFLIP overexpression, RG6146 (so in the source) and TNF
[10] = system: MKN45 cells; test: Viability with CEA-TCB/PBMC conditioned media + RG6146, 72 h; format: cell-based
[11] = system: Caspase 8; test: Caspase 8 Glo activity, 8 h; format: cell-based; conditions: for Caspase 8 activity: RG6146 + 15ng/mL TNF vs RG6146 single agent, 8h
[12] = system: MLL-AF9-driven acute myeloid leukemia cells; test: OT1 T cell cytotoxicity towards MLL-AF9 AML cells (PI positivity), 16 h; format: cell-based, murine; conditions: 2.5uM RG6146, 16 hours
[13] = system: HCT116 cells; test: CEA-TCB bystander killing of CEA negative cells, flow cytometry, 72 h; format: cell-based; conditions: RG6146 15uM to 0.002uM with CEA-TCB activated T cells
[14] = system: HCT116 cells; test: Cleaved PARP Western blot with CEA-TCB 2 conditioned media + RG6146; format: cell-based; conditions: RG6146 (2.5 and 7 mM as printed) + CEA-TCB 2 conditioned media; not seen in absence of CEA-TCB 2
[15] = system: HCT116 cells; test: CEA-TCB 2 bystander killing of CEA negative cells, flow cytometry, 72 h; format: cell-based; conditions: RG6146 15uM to 0.002uM with CEA-TCB 2 activated CTLs
[16] = system: Caspase 3,7; test: Caspase 3,7 Glo activity, 8 h; format: cell-based; conditions: for Caspase 3,7 activity: RG6146 + 15ng/mL TNF vs RG6146 single agent, 8h
[17] = system: MC38-Ova cells; test: OT1 T cell co-culture cytotoxicity (PI positivity), 18 h; format: cell-based, murine; parameters: dose or concentration left out as unconfirmed; conditions: RG6146 with OT1 T cells
[18] = system: HCT116 cells; test: Growth with Caspase 8 knock down, Incucyte S3; format: cell-based; conditions: 2.5mM (so in the source) RG6146 + 15ng/ml TNF, 7 days
[19] = system: MKN45 cells; test: Cleaved PARP Western blot with CEA-TCB 2 conditioned media + RG6146; format: cell-based; conditions: RG6146 (2.5 and 7 mM as printed) + CEA-TCB 2 conditioned media; not seen in absence of CEA-TCB 2
[20] = system: HCT116-GFP cells; test: CEA-TCB bystander effect on CEA negative cell growth, Incucyte S3; format: cell-based; conditions: RG6146 combined with CEA-TCB (20nM) vs RG6146 single agent, one week
[21] = system: AU565 cells; test: Synergy of RG6146 and recombinant TNF (PI positivity, ZIP model); format: cell-based, human; conditions: RG6146 + recombinant TNF, 18 hours
[22] = system: HCT116 cells; test: Viability with CEA-TCB/PBMC conditioned media + RG6146, 72 h; format: cell-based; conditions: 20nM CEA-TCB conditioned media + RG6146 30uM to 0.0005uM
[23] = system: CEA on tumor cells and CD3e on T cells; conditions: mouse models; cited from earlier work
[24] = system: HCT116 cells; conditions: CEA-TCB; "as has been shown for HCT116 cells that express no CEA"; cited from earlier work
[25] = HCT116 and MKN45 cells, inhibitor with RG6146 + TNF (significance not shown)

CCNC(=O)c1cc2c(-c3cc(C(C)(C)O)ccc3Oc3c(C)cc(F)cc3C)cn(C)c(=O)c2[nH]1 [ABBV744]
viability [1]: significantly decrease viability

Nc1ccccc1NC(=O)c1ccc(CNC(=O)OCc2cccnc2)cc1 [Entinostat]
viability in negative control coculture (toxicity) [2]: decreased viability also in the negative control

Cc1sc2c(c1C)C(c1ccc(Cl)cc1)=N[C@@H](CC(=O)OC(C)(C)C)c1nnc(C)n1-2 [JQ1]
viability [1]: significantly decrease viability | decreased tumor growth [3]: 50% | viability [4]: significantly decrease viability | change in sensitivity by p-gp 1 block with Zosuquidar [5]: no change | viability [6]: significantly decrease viability

CCS(=O)(=O)Nc1ccc(Oc2ccc(F)cc2F)c(-c2cn(C)c(=O)c3[nH]ccc23)c1 [Mivebresib]
viability [1]: significantly decrease viability

Cc1sc2c(c1C)C(c1ccc(Cl)cc1)=N[C@@H](CC(=O)Nc1ccc(O)cc1)c1nnc(C)n1-2 [OTX015]
viability [1]: significantly decrease viability | viability [4]: significantly decrease viability | viability [6]: significantly decrease viability

Cc1[nH]c2ccccc2c1CCNCc1ccc(/C=C/C(=O)NO)cc1 [Panobinostat]
viability in negative control coculture (toxicity) [2]: decreased viability also in the negative control

Cc1sc2c(c1C)C(c1ccc(Cl)cc1)=N[C@@H](CC(=O)NCCCN1CCN(C)CC1)c1nnc(C)n1-2 [RG6146, 2-[(S)-4-(4-chloro-phenyl)-2,3,9-trimethyl-6H-l-thia-5,7,8,9a-tetraaza-cyclopenta[e]azulen-6-yl]-N-[3-(4-methyl-piperazin-l-yl)-propyl]-acetamide]
viability [1]: significantly decrease viability | induction of cell death, synergy with TNF [7]: synergstic | cell death (cleaved PARP) [8]: able to induce cell death | cytotoxic effects of TNF+RG6146 [9]: abrogate the cytotoxic effects | viability ([10]; RG6146 with CEA-TCB supernatant): decrease in viability | Caspase 8 activity ([11]; HCT116 cells): induces Caspase3,7 and 8 activity in HCT-116 and MKN45 cells significantly | Caspase 8 activity ([11]; MKN45 cells): induces Caspase3,7 and 8 activity in HCT-116 and MKN45 cells significantly | cytotoxic activity of OT1 T cells ([12]; perforin expressing (wild-type) OT1 T cells): augments the cytotoxic activity | cytotoxic activity of OT1 T cells ([12]; perforin-deficient OT1 T cells): augments the cytotoxic activity | viability [4]: significantly decrease viability | cell killing in CEA negative cells [13]: able to increase cell killing | cell death (cleaved PARP) [14]: able to induce cell death | change in sensitivity by p-gp 1 block with Zosuquidar [5]: sensitized | sensitivity of p-gp 1 expressing MC38 cells ([5]; compared to JQ1): less sensitive | cell killing in CEA negative cells [15]: able to increase cell killing | Caspase 3,7 activity ([16]; HCT116 cells): induces Caspase3,7 and 8 activity in HCT-116 and MKN45 cells significantly | Caspase 3,7 activity ([16]; MKN45 cells): induces Caspase3,7 and 8 activity in HCT-116 and MKN45 cells significantly | cell death (PI positivity) [17]: increased cell death | viability [6]: significantly decrease viability | cell growth rescue ([18]; Caspase 8 knockdown): rescued cell growth under these treatment conditions partially | cell growth ([18]; scr treated cells): completely blocked HCT116 cell growth | cell death (cleaved PARP) [19]: able to induce cell death | cell growth of CEA negative cells [20]: significantly decrease cell growth | induction of cell death, synergy with TNF [21]: synergstic

O=C(CCCCCCC(=O)Nc1ccccc1)NO [Vorinostat]
viability in negative control coculture (toxicity) [2]: decreased viability also in the negative control

COc1cc2c(cc1-c1c(C)noc1C)ncc1[nH]c(=O)n([C@H](C)c3ccccn3)c12 [ΪBET151]
viability [1]: significantly decrease viability | viability [4]: significantly decrease viability | viability [6]: significantly decrease viability

Z-IETD-FMK: Caspase 8 inhibitor Z-IETD-FMK (R&D Systems #FMK007) (not fully specified)
block of Caspase 8 activation [11, 25]: blocked Caspase 8 and downstream Caspase 3,7 activation completely | block of downstream Caspase 3,7 activation [16, 25]: blocked Caspase 8 and downstream Caspase 3,7 activation completely

B1: CEA-TCB: T cell activating bispecific antibody targeting CEA on tumor cells and CD3e on T cells (antibody, chains of the INN, looked up, V domains shown)
VH: QVQLVQSGAEVKKPGASVKVSCKASGYTFTEFGMNWVRQAPGQGLEWMGWINTKTGEATYVEEFKGRVTFTTDTSTSTAYMELRSLRSDDTAVYYCARWDFAYYVEAMDYWGQGTTVTVSS
VL: DIQMTQSPSSLSASVGDRVTITCKASAAVGTYVAWYQQKPGKAPKLLIYSASYRKRGVPSRFSGSGSGTDFTLTISSLQPEDFATYYCHQYYTYPLFTFGQGTKLEIK
VH2: B1 VH
VL2: QAVVTQEPSLTVSPGGTVTLTCGSSTGAVTTSNYANWVQEKPGQAFRGLIGGTNKRAPGTPARFSGSLLGGKAALTLSGAQPEDEAEYYCALWYSNLWVFGGGTKLTVL
combination of cytokines released by CEA-TCB activated T cells with BET inhibition ([10]; 20nM CEA-TCB conditioned media + RG6146 30uM to 0.0005uM): synergistically combine with BET inhibition | decreased tumor growth [3]: 60% | combination of cytokines released by CEA-TCB activated T cells with BET inhibition [22]: synergistically combine with BET inhibition | PD-L1/PD-1 pathway [23]: up-regulates | anti-tumor activity [23]: potent anti-tumor activity | intratumoral T cell infiltration [23]: increased intratumoral T cell infiltration | release of pro-inflammatory cytokines such as IFNy, TNF and Granzyme B [23]: increased release of pro-inflammatory cytokines | CTL killing of cells with low or no CEA [24]: not able to induce CTL killing
